# Results from patent US8877744B2, “1,4-Oxazepines as BACE1 and/or BACE2 inhibitors” (Hoffmann-La Roche Inc., priority 2011, dated 2014).
# Structures can show the parent of a compound that is named as a salt.
# Target: T1, BACE1 (Homo sapiens, UniProt P56817)
# T1 construct: endogenous in cells; host or cells: HEK293 stably transfected with human APP695 wt
# Assay: Cellular Aβ-lowering assay a): HEK293 cells expressing human APP695, Aβ40 ELISA
# Assay type: cell-based
# Details: Aβ40 in supernatant by ELISA, 18-20 hrs incubation
# Protocol: Cellular Aβ-Lowering Assay:
# a) Human HEK293 cells which are stably transfected with a vector expressing a cDNA of the human APP wt gene (APP695) were used to assess the potency of the compounds in a cellular assay. The cells were seeded in 96-well microtiter plates in cell culture medium (Iscove, plus 10% (v/v) fetal bovine serum, glutamine, penicillin/streptomycin) to about 80% confluence and the compounds were added at a 10× concentration in 1/10 volume of medium without FCS containing 8% DMSO (final concentration of DMSO was kept at 0.8% v/v). After 18-20 hrs incubation at 37° C. and 5% CO2 in a humidified incubator the culture supernatant was harvested for the determination of Aβ40 concentrations. 96 well ELISA plates (e.g., Nunc MaxiSorb) were coated with monoclonal antibody which specifically recognize the C-terminal end of Aβ40 (Brockhaus et al., NeuroReport 9, 1481-1486; 1998). After blocking of non-specific binding sites with e.g. 1% BSA and washing, the culture supernatants were added in suitable dilutions together with a horseradish peroxidase-coupled Aβ detection antibody (e.g., antibody 4G8, Senetek, Maryland Heights, Mo.) and incubated for 5 to 7 hrs. Subsequently the wells of the microtiter plate were washed extensively with Tris-buffered saline containing 0.05% Tween 20 and the assay was developed with tetramethylbenzidine/H2O2 in citric acid buffer. After stopping the reaction with one volume 1 N H2SO4 the reaction was measured in an ELISA reader at 450 nm wavelength. The concentrations of Aβ in the culture supernatants were calculated from a standard curve obtained with known amounts of pure Aβ peptide.
# T1 sequence (P56817 46-501): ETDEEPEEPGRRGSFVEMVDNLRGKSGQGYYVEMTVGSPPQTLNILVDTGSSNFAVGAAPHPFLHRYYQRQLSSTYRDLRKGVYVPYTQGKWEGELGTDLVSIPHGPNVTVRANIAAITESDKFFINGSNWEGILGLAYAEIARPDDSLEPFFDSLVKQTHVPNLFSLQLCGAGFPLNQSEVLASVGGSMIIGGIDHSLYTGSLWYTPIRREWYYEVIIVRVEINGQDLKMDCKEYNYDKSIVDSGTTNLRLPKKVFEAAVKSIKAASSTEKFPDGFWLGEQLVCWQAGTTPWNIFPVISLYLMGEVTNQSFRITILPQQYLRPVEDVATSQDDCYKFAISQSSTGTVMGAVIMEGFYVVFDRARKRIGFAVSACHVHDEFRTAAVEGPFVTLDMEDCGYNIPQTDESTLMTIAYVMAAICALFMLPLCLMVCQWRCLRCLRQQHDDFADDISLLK
row,Compound,IC50 [µM]
1,"CC1(C)OCC(N)=N[C@](C)(c2cc(-c3nc4ccc(Cl)cc4o3)ccc2F)C1(F)F [Example 19, (R)-5-[5-(6-Chloro-benzooxazol-2-yl)-2-fluoro-phenyl]-6,6-difluoro-5,7,7-trimethyl-2,5,6,7-tetrahydro-[1,4]oxazepin-3-ylamine hydrochloride]",0.25
2,"CC1(C)OCC(N)=N[C@](C)(c2cc(-c3cccc(C#N)c3)c(F)cc2F)C1(F)F [Example 28, 5′-((R)-3-Amino-6,6-difluoro-5,7,7-trimethyl-2,5,6,7-tetrahydro-[1,4]oxazepin-5-yl)-2′,4′-difluoro-biphenyl-3-carbonitrile]",0.79
3,"CC1(C)OCC(N)=N[C@](C)(c2cc(-c3cnn(-c4ccc(F)cc4)c3)ccc2F)C1(F)F [Example 6, (R)-6,6-Difluoro-5-{2-fluoro-5-[1-(4-fluoro-phenyl)-1H-pyrazol-4-yl]-phenyl}-5,7,7-trimethyl-2,5,6,7-tetrahydro-[1,4]oxazepin-3-ylamine]",0.52
4,"CC1(C)OCC(N)=N[C@](C)(c2cc(C3=CCOCC3)ccc2F)C1(F)F [Example 5, (R)-5-[5-(3,6-Dihydro-2H-pyran-4-yl)-2-fluoro-phenyl]-6,6-difluoro-5,7,7-trimethyl-2,5,6,7-tetrahydro-[1,4]oxazepin-3-ylamine]",0.43
5,"Cc1nc(C#Cc2ccc(F)c([C@@]3(C)N=C(N)COC(C)(C)C3(F)F)c2)cs1 [Example 17, (R)-6,6-Difluoro-5-[2-fluoro-5-(2-methyl-thiazol-4-ylethynyl)-phenyl]-5,7,7-trimethyl-2,5,6,7-tetrahydro-[1,4]oxazepin-3-ylamine]",0.8
6,"CC1(C)OCC(N)=N[C@](C)(c2cc(C3CCOCC3)ccc2F)C1(F)F [Example 8, (R)-6,6-Difluoro-5-[2-fluoro-5-(tetrahydro-pyran-4-yl)-phenyl]-5,7,7-trimethyl-2,5,6,7-tetrahydro-[1,4]oxazepin-3-ylamine]",0.65
7,"CC1(C)OCC(N)=N[C@](C)(c2cc(-c3ccc(C#N)cc3F)ccc2F)C1(F)F [Example 13, 3′-((R)-3-amino-6,6-difluoro-5,7,7-trimethyl-2,5,6,7-tetrahydro-[1,4]oxazepin-5-yl)-2,4′-difluoro-biphenyl-4-carbonitrile]",0.092
8,"CC1(C)OCC(N)=N[C@](C)(c2cc(-c3ccc(C#N)cc3)c(F)cc2F)C1(F)F [Example 27, 5′-((R)-3-amino-6,6-difluoro-5,7,7-trimethyl-2,5,6,7-tetrahydro-[1,4]oxazepin-5-yl)-2′,4′-difluoro-biphenyl-4-carbonitrile]",0.43
9,"CC1(C)OCC(N)=N[C@](C)(c2cc(-c3cncc(Cl)c3)c(F)cc2F)C1(F)F [Example 26, (R)-5-[5-(5-Chloro-pyridin-3-yl)-2,4-difluoro-phenyl]-6,6-difluoro-5,7,7-trimethyl-2,5,6,7-tetrahydro-[1,4]oxazepin-3-ylamine]",0.081
10,"CC1(C)OCC(N)=N[C@](C)(c2cc(C#Cc3cccc(Cl)c3)ccc2F)C1(F)F [Example 9, (R)-5-[5-(3-Chloro-phenylethynyl)-2-fluoro-phenyl]-6,6-difluoro-5,7,7-trimethyl-2,5,6,7-tetrahydro-[1,4]oxazepin-3-ylamine]",1.34

# Second part, the compound after the results:
row,IC50 [µM],Compound
1,0.205,"CC1(C)OCC(N)=N[C@](C)(c2cc(-c3cncc(Cl)c3)ccc2F)C1(F)F [Example 4, (R)-5-[5-(5-Chloro-pyridin-3-yl)-2-fluoro-phenyl]-6,6-difluoro-5,7,7-trimethyl-2,5,6,7-tetrahydro-[1,4]oxazepin-3-ylamine]"
2,0.54,"Cn1nccc1-c1ccc(F)c([C@@]2(C)N=C(N)COC(C)(C)C2(F)F)c1 [Example 7, (R)-6,6-Difluoro-5-[2-fluoro-5-(2-methyl-2H-pyrazol-3-yl)-phenyl]-5,7,7-trimethyl-2,5,6,7-tetrahydro-[1,4]oxazepin-3-ylamine]"
3,1.59,"CC1(C)OCC(N)=N[C@](C)(c2cc(-c3cc(Cl)cc(Cl)c3)ccc2F)C1(F)F [Example 10, (R)-5-(3′,5′-Dichloro-4-fluoro-biphenyl-3-yl)-6,6-difluoro-5,7,7-trimethyl-2,5,6,7-tetrahydro-[1,4]oxazepin-3-ylamine]"
4,0.253,"C[C@]1(c2cc(-c3cncnc3)ccc2F)N=C(N)COCC1(F)F [Example 1, (R)-6,6-Difluoro-5-(2-fluoro-5-pyrimidin-5-yl-phenyl)-5-methyl-2,5,6,7-tetrahydro-[1,4]oxazepin-3-ylamine formate]"
5,0.186,"CC1(C)OCC(N)=N[C@](C)(c2cc(-c3cccc(C#N)c3)ccc2F)C1(F)F [Example 14, 3′-((R)-3-Amino-6,6-difluoro-5,7,7-trimethyl-2,5,6,7-tetrahydro-[1,4]oxazepin-5-yl)-4′-fluoro-biphenyl-3-carbonitrile]"
6,0.056,"CC1(C)OCC(N)=N[C@](C)(c2cc(-c3cncnc3)ccc2F)C1(F)F [Example 2, (R)-6,6-Difluoro-5-(2-fluoro-5-pyrimidin-5-yl-phenyl)-5,7,7-trimethyl-2,5,6,7-tetrahydro-[1,4]oxazepin-3-ylamine]"
7,0.18,"CC1(C)OCC(N)=N[C@](C)(c2cc(-c3cc(F)cc(F)c3)ccc2F)C1(F)F [Example 3, (R)-6,6-Difluoro-5,7,7-trimethyl-5-(4,3′,5′-trifluoro-biphenyl-3-yl)-2,5,6,7-tetrahydro-[1,4]oxazepin-3-ylamine]"
8,0.007,"CC1(C)OCC(N)=N[C@](C)(c2cc(-c3cncnc3)c(F)cc2F)C1(F)F [Example 25, (R)-6,6-Difluoro-5-(2,4-difluoro-5-pyrimidin-5-yl-phenyl)-5,7,7-trimethyl-2,5,6,7-tetrahydro-[1,4]oxazepin-3-ylamine]"

# Target: T2, endogenous cellular BACE2 (Rattus norvegicus, UniProt Q6IE75)
# T2 construct: endogenous in cells; host or cells: INS-TMEM27 (INS1e-derived rat cell line with inducible full-length hTMEM27)
# T2 sequence (Q6IE75 63-514): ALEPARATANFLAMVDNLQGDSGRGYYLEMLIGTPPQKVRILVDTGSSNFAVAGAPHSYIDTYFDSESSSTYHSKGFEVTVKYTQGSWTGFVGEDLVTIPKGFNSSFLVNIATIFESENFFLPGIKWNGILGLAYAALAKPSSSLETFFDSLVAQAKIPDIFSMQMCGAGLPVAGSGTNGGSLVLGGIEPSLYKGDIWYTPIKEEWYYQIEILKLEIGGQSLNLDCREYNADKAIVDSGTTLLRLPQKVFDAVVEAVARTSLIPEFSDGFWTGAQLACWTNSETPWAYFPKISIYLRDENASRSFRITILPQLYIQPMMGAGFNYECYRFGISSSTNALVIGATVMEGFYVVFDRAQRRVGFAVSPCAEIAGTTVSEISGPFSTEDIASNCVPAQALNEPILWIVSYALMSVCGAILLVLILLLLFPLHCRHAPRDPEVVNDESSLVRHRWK
# Assay: Assay for BACE inhibition by measuring cellular TMEM27 cleavage (INS-TMEM27 cells, ELISA)
# Assay type: cell-based
# Details: INS-TMEM27 (Ins1e rat) cells, shed human TMEM27 by ELISA
# Text: Assay for BACE Inhibition by Measuring Cellular TMEM27 Cleavage:
# The assay uses the principle of inhibition of human TMEM27 cleavage by endogenous cellular BACE2 in the Ins1e rat cell line and shedding from the cell surface into the culture medium, followed by detection in an ELISA assay Inhibition of BACE2 prevents the cleavage and shedding in a dose-dependent manner
# The stable cell line “INS-TMEM27” represents an INS1e-derived cell line with inducible expression (using the TetOn system) of full-length hTMEM27 in a doxycycline-dependent manner. The cells are cultured throughout the experiment in RPMI1640+Glutamax (Invitrogen) Penicillin/Streptomycin, 10% Fetal bovine serum, […], […], 100 micrograms/ml G418 and 100 microgram/ml hygromycin and are grown inadherent culture at 37° C. in a standard CO2 cell culture incubator.
# INS-TMEM27 cells are seeded in 96-well plates. After 2 days in culture, BACE2 inhibitor is added in a range of concentrations as required by the assay and after a further two hours, doxycycline is added to a final concentration of 500 ng/ml. The cells are incubated for a further 46 hours and the supernatant harvested for detection of shed TMEM27.
# An ELISA assay (using a pair of mouse anti-human-TMEM27 antibodies, raised against the extracellular domain of TMEM27) is used for detection of TMEM27 in the culture medium. An EC50 for BACE2 inhibition is calculated using the ELISA readout for each inhibitor concentration with standard curve-fitting software such as XLFit for the Excel spreadsheet program.
row,IC50 [µM],Compound
1,0.592,"CC1(C)OCC(N)=N[C@](C)(c2cc(-c3cncc(Cl)c3)ccc2F)C1(F)F [Example 4, (R)-5-[5-(5-Chloro-pyridin-3-yl)-2-fluoro-phenyl]-6,6-difluoro-5,7,7-trimethyl-2,5,6,7-tetrahydro-[1,4]oxazepin-3-ylamine]"
2,1.33,"CC1(C)OCC(N)=N[C@](C)(c2cc(-c3cc(Cl)cc(Cl)c3)ccc2F)C1(F)F [Example 10, (R)-5-(3′,5′-Dichloro-4-fluoro-biphenyl-3-yl)-6,6-difluoro-5,7,7-trimethyl-2,5,6,7-tetrahydro-[1,4]oxazepin-3-ylamine]"
3,0.279,"CC1(C)OCC(N)=N[C@](C)(c2cc(-c3cccc(C#N)c3)ccc2F)C1(F)F [Example 14, 3′-((R)-3-Amino-6,6-difluoro-5,7,7-trimethyl-2,5,6,7-tetrahydro-[1,4]oxazepin-5-yl)-4′-fluoro-biphenyl-3-carbonitrile]"
